# Patent US20140369934A1, “dsRNA/DNA Hybrid Genome Replication Intermediate Of Metakaryotic Stem Cells” (MASSACHUSETTS INSTITUTE OF TECHNOLOGY, priority 2011, published 2014)
# System: dsRNA/DNA-specific antibodies
# Assay: Blocking test of dsRNA/DNA antibody immunofluorescence staining with poly(A)-poly(dT)
# Type: binding
# Settings: 10 micrograms/milliliter Poly(A)-Poly(dT) mixed with antibody (1/20 final), incubated 10-15 minutes at room temperature
# Protocol: The specificity of staining by antibodies was checked for by the blocking test with poly(A)-poly(dT), which was performed as follows:
# Equal volumes of Poly(A)-Poly(dT) (20 ug/ml) and antibody (1/10) were mixed to give final concentrations of 10 ug/ml A.dT and 1/20 of serum (antibody). For controls, PBS was used in place of Poly(A)-Poly(dT). Samples were incubated for 10-15 minutes at room temperature.
# Samples were then tested at final concentrations of 10, 2.0, 0.5 and 0.08 micrograms/ml, in each case incubating equal volumes of polynucleotide and antibody that are twice the final concentration, as above.
substance,measurement,value
Poly(A)-Poly(dT),staining with dsRNA/DNA-specific antibodies after addition of blocker,completely blocked
